Measurements: patent publication US11180474B2 (BRISTOL-MYERS SQUIBB COMPANY, priority 2016, dated 2021)
Where a name gives a salt, the structure may show the parent alone.

Each compound was assayed against T1, human TLR9 (Homo sapiens, UniProt Q9NR96) (assay: TLR9 inhibition reporter assay (HEK-Blue cells, SEAP reporter, ODN2006 stimulation)). Conditions: HEK-Blue cells overexpressing human TLR9, ODN2006 5 nM.
T1 construct: host or cells: HEK-Blue cells
T1 sequence (Q9NR96 26-1032): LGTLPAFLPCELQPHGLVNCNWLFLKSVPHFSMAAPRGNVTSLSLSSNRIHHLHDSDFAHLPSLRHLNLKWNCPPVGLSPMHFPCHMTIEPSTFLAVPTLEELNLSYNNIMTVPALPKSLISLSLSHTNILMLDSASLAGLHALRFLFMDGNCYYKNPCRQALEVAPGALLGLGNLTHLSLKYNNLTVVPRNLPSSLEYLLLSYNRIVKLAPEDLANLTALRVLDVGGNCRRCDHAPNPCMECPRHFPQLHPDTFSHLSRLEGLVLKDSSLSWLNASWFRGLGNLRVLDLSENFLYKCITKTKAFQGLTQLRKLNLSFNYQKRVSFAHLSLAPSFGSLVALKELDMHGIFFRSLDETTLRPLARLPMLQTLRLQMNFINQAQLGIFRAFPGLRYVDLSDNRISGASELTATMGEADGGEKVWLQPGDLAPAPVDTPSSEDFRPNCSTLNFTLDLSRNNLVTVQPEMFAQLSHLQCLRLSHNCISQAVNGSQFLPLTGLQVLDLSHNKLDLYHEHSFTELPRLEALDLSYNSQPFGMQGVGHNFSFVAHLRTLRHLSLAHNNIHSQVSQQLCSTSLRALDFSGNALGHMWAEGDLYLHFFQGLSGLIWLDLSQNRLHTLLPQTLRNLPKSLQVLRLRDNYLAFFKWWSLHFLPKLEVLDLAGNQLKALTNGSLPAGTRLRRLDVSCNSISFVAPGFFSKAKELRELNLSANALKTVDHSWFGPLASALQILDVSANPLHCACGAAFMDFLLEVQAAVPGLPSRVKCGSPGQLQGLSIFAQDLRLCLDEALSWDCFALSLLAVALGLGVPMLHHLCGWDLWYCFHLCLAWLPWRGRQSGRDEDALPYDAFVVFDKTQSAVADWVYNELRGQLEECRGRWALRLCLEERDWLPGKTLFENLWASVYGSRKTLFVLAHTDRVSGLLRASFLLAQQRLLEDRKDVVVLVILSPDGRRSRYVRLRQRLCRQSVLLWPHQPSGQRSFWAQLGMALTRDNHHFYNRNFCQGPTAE
Format: cell-based
How it was run: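 Dose–response from 0.05 nM to 50 μM was run in HEK-Blue human TLR7, TLR8 and TLR9 reporter cells. After 30 min at room temperature with compound, ligand was added (TLR7 gardiquimod 7.5 μM; TLR8 R848 15.9 μM; TLR9 ODN2006 5 nM) and SEAP measured next day, at 22 h.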

First: CCc1c(-c2ccc(OC)c(OC)c2)[nH]c2ccc(C3CCN(C(=O)CN4CC[C@@H](O)C4)CC3)cc12 [Example 173, (R)-1-(4-(2-(3,4-dimethoxyphenyl)-3-ethyl-1H-indol-5-yl)piperidin-1-yl)-2-(3-hydroxypyrrolidin-1-yl)ethan-1-one]
Second: CCc1c(-c2ccc(OC)c(OC)c2)[nH]c2ccc(C3CCN(C(C)=O)CC3)cc12 [Example 185, 1-(4-(2-(3,4-dimethoxyphenyl)-3-ethyl-1H-indol-5-yl)piperidin-1-yl)ethan-1-one]
The IC50 of the first is 14-fold lower: 2240 nM for the first, 32400 nM for the second. The first is the more potent here.

First: CCc1c(-c2ccc(OC)c(OC)c2)[nH]c2ccc(C3CCN(C(=O)C(C)(C)OC(C)=O)CC3)cc12 [Example 175, 1-(4-(2-(3,4-dimethoxyphenyl)-3-ethyl-1H-indol-5-yl)piperidin-1-yl)-2-methyl-1-oxopropan-2-yl acetate]
Second: CCc1c(-c2ccc(OC)c(OC)c2)[nH]c2ccc(C3CCN(C(=O)CN(C)C)CC3)cc12 [Example 181, 1-(4-(2-(3,4-dimethoxyphenyl)-3-ethyl-1H-indol-5-yl)piperidin-1-yl)-2-(dimethylamino) ethanone]
The IC50 of the first is 6.2-fold higher: 14100 nM for the first, 2270 nM for the second.

First: CCc1c(-c2ccc(OC)c(OC)c2)[nH]c2ccc(C3CCN(C(=O)CNc4nccs4)CC3)cc12 [Example 177, 1-(4-(2-(3,4-dimethoxyphenyl)-3-ethyl-1H-indol-5-yl)piperidin-1-yl)-2-(thiazol-2-ylamino)ethanone]
Second: CCc1c(-c2ccc(OC)c(OC)c2)[nH]c2ccc(C3CCN(C(=O)c4ccncc4)CC3)cc12 [Example 183, (4-(2-(3,4-dimethoxyphenyl)-3-ethyl-1H-indol-5-yl)piperidin-1-yl)(pyridin-4-yl) methanone]
The IC50 of the first is 3-fold lower: 3360 nM for the first, 10200 nM for the second.

Going from `CCc1c(-c2ccc(OC)c(OC)c2)[nH]c2ccc(C3CCN(CC(C)C(F)(F)F)CC3)cc12` (centres unmarked) [Example 180, 2-(3,4-dimethoxyphenyl)-3-ethyl-5-(1-(3,3,3-trifluoro-2-methylpropyl)piperidin-4-yl)-1H-indole] to `CCc1c(-c2ccc(OC)c(OC)c2)[nH]c2ccc(C3CCN(C(=O)C4(C)CCNCC4)CC3)cc12` [Example 187, (4-(2-(3,4-dimethoxyphenyl)-3-ethyl-1H-indol-5-yl)piperidin-1-yl)(4-methylpiperidin-4-yl)methanone], the IC50 falls from ≥ 50000 nM to 1280 nM.

First: CCc1c(-c2ccc(OC)c(OC)c2)[nH]c2ccc(C3CCN(C(=O)C4CCCNC4)CC3)cc12 (centres unmarked) [Example 184, (4-(2-(3,4-dimethoxyphenyl)-3-ethyl-1H-indol-5-yl)piperidin-1-yl)(piperidin-3-yl)methanone]
Second: CCc1c(-c2ccc(OC)c(OC)c2)[nH]c2ccc(C3CCN(C(=O)C4CCNCC4)CC3)cc12 [Example 186, (4-(2-(3,4-dimethoxyphenyl)-3-ethyl-1H-indol-5-yl)piperidin-1-yl)(piperidin-4-yl) methanone]
The IC50 of the first is 2.1-fold higher: 2070 nM for the first, 991 nM for the second.

Going from `CCc1c(-c2ccc(OC)c(OC)c2)[nH]c2cc(C)c(C3CCN(CCNC)CC3)cc12` [Example 188, 2-(4-(2-(3,4-dimethoxyphenyl)-3-ethyl-6-methyl-1H-indol-5-yl)piperidin-1-yl)-N-methylethanamine-di-trifluoroacetic acid] to `CCc1c(-c2ccc(OC)c(OC)c2)[nH]c2c(F)cc(C3CCN(CCNC)CC3)cc12` [Example 191, 2-(4-(2-(3,4-dimethoxyphenyl)-3-ethyl-7-fluoro-1H-indol-5-yl)piperidin-1-yl)-N-methylethan-1-amine], the IC50 rises from 613 nM to 1220 nM (2-fold). The first is the more potent here.

First: CCc1c(-c2ccc(OC)c(OC)c2)[nH]c2c(F)cc(C3CCNCC3)cc12 [Example 189, 2-(3,4-dimethoxyphenyl)-3-ethyl-7-fluoro-5-(piperidin-4-yl)-1H-indole]
Second: COc1ccc(-c2[nH]c3ccc(C4CCNCC4)cc3c2C(C)C)cc1OC [Example 194, 2-(3,4-dimethoxyphenyl)-3-isopropyl-5-(piperidin-4-yl)-1H-indole hydrochloride]
The IC50 of the first is 4.4-fold lower: 1150 nM for the first, 5010 nM for the second.

`CCc1c(-c2ccc(OC)c(OC)c2)[nH]c2c(F)cc(C3CCN(C4CCN(CC(C)C)CC4)CC3)cc12` [Example 190, 2-(3,4-dimethoxyphenyl)-3-ethyl-7-fluoro-5-(1′-isobutyl-[1,4′-bipiperidin]-4-yl)-1H-indole] and `COc1ccc(-c2[nH]c3ccc(C4CCN(C5CCN(CC(C)C)CC5)CC4)cc3c2C(C)C)cc1OC` [Example 199, 2-(3,4-dimethoxyphenyl)-5-(1′-isobutyl-[1,4′-bipiperidin]-4-yl)-3-isopropyl-1H-indole] are within 1.5-fold of each other in IC50: 280 nM for the first, 257 nM for the second.

First: CCc1c(-c2ccc(OC)c(OC)c2)[nH]c2cc(OC)c(C3CCN(C4CCN(C(C)C)CC4)CC3)cc12 [Example 192, 2-(3,4-dimethoxyphenyl)-3-ethyl-5-(1′-isopropyl-[1,4′-bipiperidin]-4-yl)-6-methoxy-1H-indole]
Second: COc1ccc(-c2[nH]c3cc(C)c(C4CCN(C5CCN(C(C)C)CC5)CC4)cc3c2C(C)C)cc1OC [Example 206, 2-(3,4-dimethoxyphenyl)-3-isopropyl-5-(1′-isopropyl-[1,4′-bipiperidin]-4-yl)-6-methyl-1H-indole di trifluoroacetic acid]
The IC50 of the first is 3.8-fold lower: 260 nM for the first, 1000 nM for the second.

Compared with `COc1ccc(-c2[nH]c3ccc(C4CCN(C5CCNCC5)CC4)cc3c2C(C)C)cc1OC` [Example 197, 5-([1,4′-bipiperidin]-4-yl)-2-(3,4-dimethoxyphenyl)-3-isopropyl-1H-indole dihydrochloride], `COc1ccc(-c2[nH]c3ccc(C4CCN(C5CCN(C)CC5)CC4)cc3c2C(C)C)cc1OC` [Example 200, 2-(3,4-dimethoxyphenyl)-3-isopropyl-5-(1′-methyl-[1,4′-bipiperidin]-4-yl)-1H-indole] is 1.9-fold higher in IC50: 653 nM for the first, 1260 nM for the second. The first is the more potent here.

`COc1ccc(-c2[nH]c3ccc(C4CCN(C5CCN(CC6CC6)CC5)CC4)cc3c2C(C)C)cc1OC` [Example 198, 5-(1′-(cyclopropylmethyl)-[1,4′-bipiperidin]-4-yl)-2-(3,4-dimethoxyphenyl)-3-isopropyl-1H-indole di trifluoroacetic acid] and `COc1ccc(-c2[nH]c3ccc(C4CCN(C5CCN(C6CCCC6)CC5)CC4)cc3c2C(C)C)cc1OC` [Example 202, 5-(1′-cyclopentyl-[1,4′-bipiperidin]-4-yl)-2-(3,4-dimethoxyphenyl)-3-isopropyl-1H-indole] are within 1.5-fold of each other in IC50: 490 nM for the first, 340 nM for the second.

Compared with `COc1ccc(-c2[nH]c3ccc(C4CCN(C5CCN(C(C)C)CC5)CC4)cc3c2C(C)C)cc1OC` [Example 201, 2-(3,4-dimethoxyphenyl)-3-isopropyl-5-(1′-isopropyl-[1,4′-bipiperidin]-4-yl)-1H-indole], `CCN(CC)C(=O)CN(C)CC(=O)N1CCC(c2ccc3[nH]c(-c4ccc(OC)c(OC)c4)c(C(C)C)c3c2)CC1` [Example 203, 2-((2-(4-(2-(3,4-dimethoxyphenyl)-3-isopropyl-1H-indol-5-yl)piperidin-1-yl)-2-oxoethyl)(methyl)amino)-N,N-diethylacetamide, TFA] is 10-fold higher in IC50: 650 nM for the first, 6660 nM for the second. The first is the more potent here.

First: CCN(CC)C(=O)CCN(C)CC(=O)N1CCC(c2ccc3[nH]c(-c4ccc(OC)c(OC)c4)c(C(C)C)c3c2)CC1 [Example 204, 3-((2-(4-(2-(3,4-dimethoxyphenyl)-3-isopropyl-1H-indol-5-yl)piperidin-1-yl)-2-oxoethyl)(methyl)amino)-N,N-diethylpropanamide]
Second: COc1ccc(-c2[nH]c3cc(C)c(C4CCNCC4)cc3c2C(C)C)cc1OC [Example 205, 2-(3,4-dimethoxyphenyl)-3-isopropyl-6-methyl-5-(piperidin-4-yl)-1H-indole]
The IC50 of the first is 2.1-fold higher: 2000 nM for the first, 966 nM for the second. The second is the more potent here.
